The record followed here is patent US5620997A, “Isothiazolones” (Warner-Lambert Company, priority 1995, dated 1997).

SMILES strings stand for the structures.

In data set [1] the target is T1, HIV-1 Nucleocapsid Protein (NCp7) (Human immunodeficiency virus type 1 group M subtype B, UniProt P12493).
T1 construct: The NCp7 protein containing 2 Zn-fingers and 2 Zn ions
Briefly: Fluorescence-based (TSQ) assay of zinc ejection from purified HIV-1 NCp7. It counts as biochemical. The note with it: 10 μM compound, 2.8 μM NCp7, 47 μM TSQ, pH 7.4, 26° C., 90 minutes. From the text:
The compounds of the present invention cause the extrusion of zinc from the nucleocapsid protein (NCp7) of HIV-1. The NC protein is highly conserved among all retroviruses (South T., Blake P., et al., Biochemistry, 1990;;29:7786) and is essential for viral infectivity (Aldovini A. and Young R., J. Virology, 1990;64:1920 and Gorelick R., Nigida S., et al., J. Virology, 1990;64:3207). The zinc is normally held in NC proteins by 1 or 2 zinc fingers. In the case of HIV-1, 2 zinc fingers are present (Summers M., South T., et al., Biochemistry, 1990;29:329) and are involved specifically with the PSI site on viral RNA which controls the packaging of viral RNA. Interference of this packaging causes the formation of non-infectious virions (Dannull J., Surovoy A., et al., EMBO, 1994;13:1525). It has previously been shown that compounds that cause zinc extrusion have potent anti-HIV activity in multiple cell lines and against all retroviruses (Rice W., Schaeffer C., et al., Nature, 1993;361:473).
A fluorescence-based assay has been developed to monitor the ejection of zinc from purified HIV-1 NCp7. The fluorophore, N-(6-methoxy-8-quinolyl)-p-toluenesulfonamide (TSQ), has an increased fluorescent signal upon bonding zinc ion in solution. The NCp7 protein containing 2 Zn-fingers and 2 Zn ions is incubated with drug causing the extrusion of Zn ions. The released Zn is then sequestered by the TSQ and the increased fluorescence monitored relative to control. The assay was performed as follows: 10 μM compound was added to 2.8 μM NCp7 and 47 μM TSQ in 20 μL of pH 7.4 buffer at 26° C. for 90 minutes. Fluorescence (excitation 355 nm emission 400 nm) was monitored versus time. Controls were the NCp7 under assay conditions without drug, and apo NCp7 (no Zn) with drug. The % Zn extrusion was calculated based on the actual fluorescence measured divided by the fluorescence of all theoretical Zn extruded (5.6 μM)×100.
Table 1 below presents the results of testing several of the invention compounds in zinc extrusion assay described above. The compounds were evaluated for their ability to cause the extrusion of zinc from nucleocapsid protein NCp7 (expressed as % relative to control).

A further data set concerns HIV. Briefly: CEM cell assay, anti-HIV activity (XTT, protection from viral cytopathic effects). It counts as cell-based. The note with it: Human immunodeficiency virus 1, CCRF-CEM; Effective concentration which protects cells from viral cytopathic effects. From the text:
The test systems utilized to establish the cellular antiviral activity of the isothiazolones of Formula I are well recognized in the art and are routinely employed for such purpose. For example, the assay utilized to evaluate the compounds activity against the HIV virus is that employed by the U.S. National Cancer Institute as described by Weislow O. S., et al., J. Natl. Cancer Inst., 1989;81:577-586, incorporated herein by reference.
The procedure is designed to detect agents acting at any stage of the virus reproductive cycle. The assay basically involves the killing of T4 lymphocytes by HIV. Small amounts of HIV are added to cells, and at least two complete cycles of virus reproduction are necessary to obtain the required cell killing. Agents which interact with virions, cells, or virus gene-products to interfere with viral activities will protect cells from cytolysis. The system is automated in several features to accommodate large numbers of candidate agents, and is generally designed to detect anti-HIV activity. However, compounds which degenerate or are rapidly metabolized in the culture conditions may not show activity in this screen.
Yet another test system employed to determine antiviral activity is called the CEM cell assay.
T4 lymphocytes (CEM cell line) are exposed to HIV at a virus to cell ratio approximately 0.05, and plated along with noninfected control cells in 96-well microliter plates.
Candidate agent is dissolved in dimethyl sulfoxide (unless otherwise noted), then diluted 1:200 in cell culture medium. Further dilutions (half-log10) are prepared before adding to an equal volume of medium containing either infected or noninfected cells.
Cultures are incubated at 37° in a 5% carbon dioxide atmosphere for 6 or 7 days. The tetrazolium salt, XTT, is added to all wells, and cultures are incubated to allow formazan color development by viable cells J. National Cancer Institute, 1989;81:577-586. Individual wells are analyzed spectrophotometrically to quantitate formazan production, and in addition are viewed microscopically for detection of viable cells confirmation of protective activity.
Drug-tested virus-infected cells are compared with drug-treated noninfected cells and with other appropriate controls (untreated infected and untreated noninfected cells, drug-contain wells without cells, etc.) on the same plate. Data are reviewed in comparison with other tests done at the same time and a determination about activity is made.
A general note: Tetrazolium assays rely on reduction of a dye to a coloured formazan, in cell work by metabolically active cells.

The nature of data set [2]: CEM cell assay, toxicity (growth inhibition). It counts as cell-based. The settings on record: human, cem cells; Toxic concentration which inhibits the growth of cells 50% relative to control; read-out: CEM Cell Assay TC50. As for the experimental part:
T4 lymphocytes (CEM cell line) are exposed to HIV at a virus to cell ratio approximately 0.05, and plated along with noninfected control cells in 96-well microliter plates. Candidate agent is dissolved in dimethyl sulfoxide (unless otherwise noted), then diluted 1:200 in cell culture medium. Further dilutions (half-log10) are prepared before adding to an equal volume of medium containing either infected or noninfected cells. Cultures are incubated at 37° in a 5% carbon dioxide atmosphere for 6 or 7 days. The tetrazolium salt, XTT, is added to all wells, and cultures are incubated to allow formazan color development by viable cells J. National Cancer Institute, 1989;81:577-586. Individual wells are analyzed spectrophotometrically to quantitate formazan production, and in addition are viewed microscopically for detection of viable cells confirmation of protective activity. Drug-tested virus-infected cells are compared with drug-treated noninfected cells and with other appropriate controls (untreated infected and untreated noninfected cells, drug-contain wells without cells, etc.) on the same plate. Data are reviewed in comparison with other tests done at the same time and a determination about activity is made.

The target of data set [3] is T2, rabbit reticulocyte 15-LO (Oryctolagus cuniculus, UniProt P12530).
T2 construct: rabbit reticulocyte 15-LO; from tissue; host or cells: rabbit reticulocytes
T2 sequence (P12530 1-663): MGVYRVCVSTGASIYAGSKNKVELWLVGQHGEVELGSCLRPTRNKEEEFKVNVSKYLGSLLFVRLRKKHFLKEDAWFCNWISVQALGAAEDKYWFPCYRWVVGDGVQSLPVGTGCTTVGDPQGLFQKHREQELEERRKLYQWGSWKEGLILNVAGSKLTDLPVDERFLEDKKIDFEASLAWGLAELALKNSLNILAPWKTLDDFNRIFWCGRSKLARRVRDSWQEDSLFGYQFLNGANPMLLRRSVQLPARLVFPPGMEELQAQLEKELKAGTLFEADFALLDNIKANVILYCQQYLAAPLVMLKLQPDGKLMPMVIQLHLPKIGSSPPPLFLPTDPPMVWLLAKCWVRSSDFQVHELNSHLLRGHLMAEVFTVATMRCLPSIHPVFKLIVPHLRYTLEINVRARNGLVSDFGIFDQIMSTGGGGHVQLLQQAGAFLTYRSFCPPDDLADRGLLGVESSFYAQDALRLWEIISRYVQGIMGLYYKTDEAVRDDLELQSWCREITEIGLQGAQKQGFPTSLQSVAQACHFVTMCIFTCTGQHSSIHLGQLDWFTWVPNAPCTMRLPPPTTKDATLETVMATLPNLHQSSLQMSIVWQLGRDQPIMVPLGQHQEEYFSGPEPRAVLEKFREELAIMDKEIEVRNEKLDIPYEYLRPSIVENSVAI
Briefly: Colorimetric Assay of 15-LO Inhibition. Format: biochemical. The settings on record: colorimetric method. As for the experimental part: The isothiazolones of Formula I are also effective for treating inflammation and atherosclerosis. A characteristic feature of atherosclerosis is the accumulation of cholesteryl ester engorged from foam cells. Foam cells are derived from circulating monocytes which invade artery walls in response to hypercholesterolemia, and mature into tissue macrophages. […] Specifically, representative compounds were evaluated by the methods described by Auerbach, et al., Analytical Biochemistry, 1992;201:375-380. Two in vitro assays were utilized, both utilizing rabbit reticulocyte 15-LO, and linoleic acid as substrate, to enzymatically produce a peroxide oxidation product known as 13(S)-HPODE. N-Benzoyl leucomethylene blue was utilized as a colorimetric reagent for detection and quantification of the peroxide formation. Also, HPLC was utilized to quantify the oxidation following incubation at 4° C. for 10 minutes.
Table 3 gives the concentration of compound required to inhibit 50% of the activity of 15-LO (IC50) when measured by the HPLC method of Auerbach, et al. Table 4 gives the percent inhibition of 15-LO activity when evaluated by the colorimetric method.

The EC50 is the concentration giving half of the maximal effect. A low value points to an effect from little substance. `CC[C@H](C)[C@@H](C(=O)O)n1sc2ccccc2c1=O` [Example 2, [S-(R*,R*)]-3-Methyl-2-(3-oxo-3h-benzo[d]isothiazol-2-yl)pentanoic acid]: the “% Zn Extrusion Relative to Control” value in data set [1] is on record as 30%. In the data set with HIV, this compound returned an EC50 of 14 µM. The CC50 in data set [2] is above 100 µM.
Usually inhibition stands for how much of the control response was suppressed. A higher inhibition goes with strong suppression. Compound `CC(=O)NS(=O)(=O)c1ccc(-n2sc3ccccc3c2=O)cc1` [Example 3, N-Acetyl-4-(3-oxo-3h-benzo[d]isothiazol-2-yl)-benzenesulfonamide] had an inhibition at 10 µM in data set [3] of 75%.
Regarding `O=C(O)Cn1sc2ccccc2c1=O` [Example 13, 2-(3-Oxo-3h-benzo[d]isothiazol-2-yl) acetic acid], the “% Zn Extrusion Relative to Control” value in data set [1] is 75%.
As for `CC(C)C(C(=O)O)n1sc2ccccc2c1=O` (centres unmarked) [Example 14, 3-Methyl-2-(3-oxo-3h-benzo[d]isothiazol-2-yl)-butanoic acid], the “% Zn Extrusion Relative to Control” value in data set [1] is listed as 71%. Besides, in the data set with HIV, the EC50 was 21 µM. In addition, in data set [2], the CC50 is above 100 µM.
With `O=c1c2ccccc2sn1-c1ccccc1` [Example 15, 2-Phenyl-3-oxo-3h-benz[d]isothiazole], in data set [1], the “% Zn Extrusion Relative to Control” value is 97%.
As to `O=C(O)CCCn1sc2ccccc2c1=O` [Example 17, 4-(3-Oxo-2-h-benzo[d]isothiaz-2-yl) butanoic acid], the “% Zn Extrusion Relative to Control” value in data set [1] was found to be 78%. Also, in the data set with HIV, the EC50 turned out to be 5.8 µM. The CC50 in data set [2] was above 100 µM.
On to `Cc1ccnc(-n2sc3ccccc3c2=O)c1` [Example 18, 2-(4-Methylpyridin-2-yl)-3-oxo-3h-benzo[d]isothiazole], for which the “% Zn Extrusion Relative to Control” value in data set [1] came out at 100%.
In data set [3], `CCN(CC)CCn1sc2nc(-c3ccccc3)ncc2c1=O` [Example 21, 2-[2-(Diethylamino)ethyl]-6-phenyl-isothiazolo[5,4-d] pyrimidin-3(2H)-one] came in with an inhibition at 10 µM of 95%.
For `O=C(O)Cc1ccc(-n2sc3ccccc3c2=O)cc1` [Example 25, 4-(3-Oxo-3h-benz-[d]isothiazol-2-yl)-phenyl acetic acid], the “% Zn Extrusion Relative to Control” value in data set [1] was 89%. Besides, the EC50 with HIV came out at 5.8 µM. Moreover, the CC50 in data set [2] is 69 µM.
In data set [3], `COc1ccc(-c2ccc3c(=O)n(CCN(C)C)sc3n2)cc1OC` [Example 108] displayed an inhibition at 10 µM of 65%.
In data set [3], `CN(C)CCn1sc2nc3ccccc3cc2c1=O` [Example 109] registered an inhibition at 10 µM of 22%.
With `NS(=O)(=O)c1ccc(NC(=O)c2ccccc2S)cc1` [Preparation 29, 2-Mercapto-N-(4-sulfamoylphenyl)benzamide], the “% Zn Extrusion Relative to Control” value in data set [1] was determined as 5.8%.
